The values that follow come from PubChem BioAssay (NCI).

Each structure is given as a SMILES string.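 How tested: cells in 96-well plates exposed to compound for 48 hours at five concentrations. Definition used: TGI = concentration required for complete inhibition of growth.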 Where only a bound is given, the exact number is not on record here.

Some test systems named below: 786-0 renal; A498 renal; EKVX NSCLC; HCT-116 colon; HOP-92 NSCLC; KM12 colon; MDA-N; MOLT-4 leukemia; OVCAR-3 ovarian; OVCAR-5 ovarian; SF-268 CNS; SNB-75 CNS; TK-10 renal.
Holding throughout (test): NCI anticancer screen, dose series, 48 h

Take `COC(=O)/C(C#N)=C/c1cc(C(C)(C)C)c(O)c(C(C)(C)C)c1`: the TGI amounted to 12.2 µM with 786-0 renal; 8.37 µM in the assay with A498 renal; 11.9 µM in the assay with EKVX NSCLC; 10.5 µM in the assay with HCT-116 colon; 12.4 µM with HOP-92 NSCLC; 19.9 µM in the assay with KM12 colon. Further, the TGI with MDA-N is 13.3 µM; in the assay on MOLT-4 leukemia, over 29.6 µM; in the assay with OVCAR-3 ovarian, 5.55 µM; in the assay with OVCAR-5 ovarian, 8.51 µM; in the assay on SF-268 CNS, over 40.5 µM; in the assay on SNB-75 CNS, 17.1 µM. Besides, in the assay on TK-10 renal, the TGI was determined as 12.9 µM.
Turning to `O=C(O)CCC(NC(=O)c1ccc(Oc2nc3ccccc3nc2-c2ccccc2)cc1)C(=O)O` (stereo not given), the TGI in the assay on 786-0 renal, in the assay with A498 renal, in the assay on EKVX NSCLC, in the assay with HCT-116 colon, in the assay on HOP-92 NSCLC and in the assay with KM12 colon was over 100 µM throughout. In addition, the TGI in the assay with MDA-N, with MOLT-4 leukemia, in the assay with OVCAR-3 ovarian, with OVCAR-5 ovarian, in the assay with SF-268 CNS and with SNB-75 CNS was over 100 µM throughout. The molecule further gave a TGI with TK-10 renal of over 100 µM.
For `COc1cccc(CCn2c(N)c(C#N)c3ccc([N+](=O)[O-])cc3c2=O)c1`, the TGI in the assay on 786-0 renal is over 46.4 µM; in the assay on A498 renal, over 100 µM; in the assay on EKVX NSCLC, over 31.6 µM; in the assay with HCT-116 colon, over 46.4 µM; in the assay with HOP-92 NSCLC, over 31.6 µM; in the assay with KM12 colon it was over 31.6 µM. For the same molecule, the TGI with MDA-N is over 100 µM; with MOLT-4 leukemia it was over 31.6 µM; in the assay on OVCAR-3 ovarian, over 31.6 µM; in the assay on OVCAR-5 ovarian, over 31.6 µM; in the assay with SF-268 CNS it was over 46.4 µM; with SNB-75 CNS it was over 46.4 µM. This molecule also showed a TGI with TK-10 renal of over 46.4 µM.
For `COC1(OC)C2C=CC1C([C@](C)(N)CO)C2` (stereo not given in full), the TGI with 786-0 renal, in the assay on A498 renal, with EKVX NSCLC, with HCT-116 colon, in the assay with HOP-92 NSCLC and with KM12 colon was over 100 µM each time. Besides, the TGI in the assay with MDA-N, in the assay on MOLT-4 leukemia, in the assay with OVCAR-3 ovarian, in the assay on OVCAR-5 ovarian, in the assay with SF-268 CNS and with SNB-75 CNS was over 100 µM in each case. This molecule also yielded a TGI with TK-10 renal of over 100 µM.
As to `COC(=O)CNC(=O)CSc1nnc(COc2ccc(Cl)cc2)n1-c1ccccc1`, the TGI in the assay with 786-0 renal is 31.4 µM; with A498 renal, over 100 µM; in the assay with EKVX NSCLC, over 100 µM; with HCT-116 colon, over 100 µM; in the assay with HOP-92 NSCLC, over 100 µM; in the assay with KM12 colon, over 100 µM. Also, the TGI is 42.2 µM with MDA-N; over 100 µM in the assay with MOLT-4 leukemia; over 100 µM with OVCAR-3 ovarian; over 100 µM in the assay with OVCAR-5 ovarian; 46.6 µM in the assay on SF-268 CNS; 35.5 µM with SNB-75 CNS. In addition, the TGI in the assay on TK-10 renal was found to be 46.3 µM.
For `COC(=O)c1cc2c(cc1C(=O)OC)[C@@]1(C)CCCC(C)(C)C1CC2` (stereo not given in full), the TGI in the assay with 786-0 renal was found to be 36.7 µM; in the assay on A498 renal, 32.4 µM; with EKVX NSCLC, 30.1 µM; in the assay with HCT-116 colon it was 45.8 µM; with HOP-92 NSCLC, 26.2 µM; with KM12 colon it was 30.6 µM. Besides, the TGI in the assay on MDA-N was 78.8 µM; with MOLT-4 leukemia, over 100 µM; in the assay with OVCAR-3 ovarian it was 25 µM; in the assay with OVCAR-5 ovarian it was 38.1 µM; with SF-268 CNS, 31.2 µM; with SNB-75 CNS it was 82.1 µM. Moreover, in the assay with TK-10 renal, the TGI was 39 µM.
`Cc1cnc2[nH]c(-c3ccc(Cl)cc3)cc(=O)c2c1`: the TGI in the assay on 786-0 renal is over 100 µM; with A498 renal it was over 100 µM; in the assay on EKVX NSCLC, over 100 µM; with HCT-116 colon it was over 29.3 µM; in the assay with HOP-92 NSCLC it was over 100 µM; with KM12 colon it was over 100 µM. Also, the TGI in the assay on MDA-N is 3.61 µM; in the assay with MOLT-4 leukemia it was over 53.7 µM; in the assay with OVCAR-3 ovarian it was over 24.4 µM; in the assay on OVCAR-5 ovarian, over 31.6 µM; with SF-268 CNS, over 100 µM; with SNB-75 CNS, over 100 µM. For the same molecule, the TGI with TK-10 renal is over 100 µM.
Turning to `COC(=O)[C@@H]1[C@H]2CC[C@]3(C)[C@@H](OC(C)=O)CC[C@H]3[C@@H]2CC[C@H]1C(C)=O`, the TGI in the assay on 786-0 renal, in the assay with A498 renal, with EKVX NSCLC, in the assay with HCT-116 colon, in the assay with HOP-92 NSCLC and with KM12 colon was over 100 µM each time. Further, the TGI with MDA-N, with MOLT-4 leukemia, with OVCAR-3 ovarian, in the assay on OVCAR-5 ovarian, in the assay with SF-268 CNS and in the assay with SNB-75 CNS was over 100 µM throughout. Moreover, in the assay with TK-10 renal, the TGI was over 100 µM.
With `CC(=O)OC(C)c1cc2c(s1)C(=O)c1ccsc1C2=O` (stereo not given), the TGI with 786-0 renal was 0.978 µM; in the assay with A498 renal, 3.32 µM; in the assay on EKVX NSCLC, 2.74 µM; in the assay with HCT-116 colon, 0.769 µM; in the assay on HOP-92 NSCLC it was 1.74 µM; in the assay with KM12 colon, 0.306 µM. For the same molecule, the TGI with MDA-N is 0.0544 µM; with MOLT-4 leukemia, 0.684 µM; in the assay on OVCAR-3 ovarian, 0.192 µM; in the assay with OVCAR-5 ovarian it was 0.994 µM; in the assay with SF-268 CNS, 0.812 µM; in the assay with SNB-75 CNS, 0.301 µM. The TGI in the assay on TK-10 renal is 2.49 µM.
Regarding `COC(=O)[C@H](C)N(C)C(=O)[C@H](C)N1[C@@H](c2ccccc2)COC1(C)C`, the TGI with 786-0 renal, in the assay on A498 renal, in the assay on EKVX NSCLC, in the assay on HCT-116 colon, in the assay on HOP-92 NSCLC and with KM12 colon was over 100 µM throughout. Also, the TGI in the assay on MDA-N, with MOLT-4 leukemia, in the assay on OVCAR-3 ovarian, in the assay on OVCAR-5 ovarian, in the assay on SF-268 CNS and in the assay with SNB-75 CNS was over 100 µM in each case. The molecule further displayed a TGI in the assay on TK-10 renal of over 100 µM.
With `Oc1cccc2ccc(Br)nc12`, the TGI in the assay with 786-0 renal, in the assay on A498 renal, with EKVX NSCLC, in the assay on HCT-116 colon, in the assay with HOP-92 NSCLC and in the assay on KM12 colon was over 100 µM in each case. Further, the TGI in the assay on MDA-N, with MOLT-4 leukemia, with OVCAR-3 ovarian, in the assay with OVCAR-5 ovarian, in the assay with SF-268 CNS and with SNB-75 CNS was over 100 µM in each case. This molecule had a TGI in the assay on TK-10 renal of over 100 µM.
Regarding `Cn1c(N)c(/C=C/C(=O)Oc2ccccc2)c(=O)n(C)c1=O`, the TGI in the assay with 786-0 renal was over 100 µM; in the assay on A498 renal, over 100 µM; in the assay on EKVX NSCLC it was over 100 µM; in the assay on HCT-116 colon, over 100 µM; in the assay with HOP-92 NSCLC, 93 µM; in the assay with KM12 colon, over 100 µM. In addition, the TGI in the assay on MDA-N is over 100 µM; in the assay on MOLT-4 leukemia it was over 100 µM; in the assay on OVCAR-3 ovarian, over 100 µM; with OVCAR-5 ovarian it was over 100 µM; in the assay with SF-268 CNS, over 100 µM; in the assay on SNB-75 CNS, 66.5 µM. This molecule displayed a TGI in the assay on TK-10 renal of over 100 µM.
Consider `NC(=O)NC(=O)c1cccc(NC(=O)CCl)c1`, for which the TGI in the assay on 786-0 renal is 3.91 µM; with A498 renal, 6.39 µM; in the assay with EKVX NSCLC, 26.5 µM; in the assay with HCT-116 colon it was 1.83 µM; with HOP-92 NSCLC, 15.2 µM; with KM12 colon it was 2.43 µM. For the same molecule, the TGI with MDA-N worked out at 1.08 µM; in the assay with MOLT-4 leukemia, 15.4 µM; in the assay with OVCAR-3 ovarian, 1.44 µM; in the assay with OVCAR-5 ovarian, 9.49 µM; with SF-268 CNS, 8.29 µM; in the assay with SNB-75 CNS it was 7.06 µM. The molecule also returned a TGI in the assay on TK-10 renal of 6.76 µM.
As for `c1ccc(COC[C@H]2C3OCC([C@H](OCc4ccccc4)[C@H]3OCc3ccccc3)N2Cc2ccccc2)cc1` (stereo not given in full), the TGI in the assay with 786-0 renal, in the assay with A498 renal, in the assay with EKVX NSCLC, in the assay with HCT-116 colon, in the assay with HOP-92 NSCLC and in the assay with KM12 colon was over 100 µM throughout. In addition, the TGI was over 100 µM in the assay with MDA-N; over 51.7 µM with MOLT-4 leukemia; over 100 µM in the assay with OVCAR-3 ovarian; over 100 µM in the assay with OVCAR-5 ovarian; over 100 µM in the assay with SF-268 CNS; over 100 µM in the assay with SNB-75 CNS. The same molecule displayed a TGI with TK-10 renal of over 100 µM.
In the case of `N#Cc1c(N)c2c(c(-c3ccccc3)c1-c1ccccc1)C(=O)N(O)C2=O`, the TGI is over 100 µM in the assay on 786-0 renal; over 100 µM with A498 renal; over 100 µM in the assay on EKVX NSCLC; 82.4 µM in the assay on HCT-116 colon; over 100 µM in the assay with HOP-92 NSCLC; 83.5 µM with KM12 colon. The TGI in the assay with MDA-N, in the assay on MOLT-4 leukemia, in the assay on OVCAR-3 ovarian, in the assay with OVCAR-5 ovarian, with SF-268 CNS and in the assay with SNB-75 CNS was over 100 µM throughout. The TGI in the assay with TK-10 renal was over 100 µM.
